Tested on: Silicibacter sp. strain TM1040
Test: Chemotaxis plate screening assay (change in motile colony morphology); as to Change in morphology with carbon source Alanine: key: −: minus indicates no change compared to distilled water or no attractant controls; +: either one or two pluses indicates moderate to strong alteration in motile colony phenotype (respectively); ++: either one or two pluses indicates moderate to strong alteration in motile colony phenotype (respectively); as to Change in morphology with carbon source Glucose: key: −: minus indicates no change compared to distilled water or no attractant controls; +: either one or two pluses indicates moderate to strong alteration in motile colony phenotype (respectively); ++: either one or two pluses indicates moderate to strong alteration in motile colony phenotype (respectively); as to Change in morphology with carbon source Glycerol: key: −: minus indicates no change compared to distilled water or no attractant controls; +: either one or two pluses indicates moderate to strong alteration in motile colony phenotype (respectively); ++: either one or two pluses indicates moderate to strong alteration in motile colony phenotype (respectively); as to Response: change in motile colony morphology of TM1040 in response to attractants, compared to the control: key: −: minus indicates no change compared to distilled water or no attractant controls; +: either one or two pluses indicates moderate to strong alteration in motile colony phenotype (respectively); ++: either one or two pluses indicates moderate to strong alteration in motile colony phenotype (respectively)
Assay type: cell-based
Settings: for Change in morphology with carbon source Alanine / Change in morphology with carbon source Glucose / Change in morphology with carbon source Glycerol / Change in morphology with carbon source Succinate: BM motility agar; for Change in morphology with carbon source Alanine: alanine as single carbon source; for Change in morphology with carbon source Glucose: glucose as single carbon source; for Change in morphology with carbon source Glycerol: glycerol as single carbon source; for Change in morphology with carbon source Succinate: succinate as single carbon source
Experimental: Following 36 h of incubation, a putative attractant was placed approximately 5 cm from the site of inoculation (or 2.5 cm in front of the periphery of motile cells). Possible chemoattractant compounds were administered as either a sterile solid or concentrated stock solutions. The cells were further incubated for 16 h to allow for additional outward movement, at which time measurement of diameter, shape, and chemotaxis rings internal to the motile colony were made.
[…] Bacteria inoculated into the center of the agar consume nutrients and create a concentration gradient that increases outward from the point of inoculation. The bacteria sense the increasing gradient and swim outwards, seeking higher concentrations of nutrients, which is manifested as a symmetrical “motile” colony. If an attractant is placed at a short distance in front of the advancing motile colony, it forms a second gradient moving towards the oncoming cells that will affect the symmetry of the colony by reducing the net outward swimming of the bacteria.

| Structure (SMILES) | Response: change in motile colony morphology of TM1040 in response to attractants, compared to the control (BM glycerol motility agar) | Change in morphology with carbon source Alanine | Change in morphology with carbon source Glucose | Change in morphology with carbon source Glycerol | Change in morphology with carbon source Succinate | chemotactic response of TM1040 in plate assay (BM glycerol motility agar) | chemotactic response of TM1040 in plate assay (glucose background (BM glucose)) |
| --- | --- | --- | --- | --- | --- | --- | --- |
| C[C@H](N)C(=O)O [Alanine] | ++ | − | − | ++ | + |  |  |
| C[S+](C)[O-] [DMSO, dimethyl sulfoxide] | − | − | − | − | − |  |  |
| O=C[C@H](O)[C@@H](O)[C@@H](O)[C@H](O)CO [Galactose] | ++ | − | − | ++ | + | responded positively |  |
| OC[C@H]1O[C@@H](O[C@H]2[C@H](O)[C@@H](O)C(O)O[C@@H]2CO)[C@H](O)[C@@H](O)[C@H]1O (stereo partly drawn) [Lactose] | − | − | − | − | − |  |  |
| O=C(O)CCS [MPA, 3-mercaptopropionate] | + |  |  |  |  | only weakly |  |
| CC(=O)N[C@H]1C(O)O[C@H](CO)[C@@H](O)[C@@H]1O (stereo partly drawn) [N-acetylglucosamine] | ++ | + | − | ++ | + | responded positively |  |
| C=CC(=O)O [acrylate] | ++ | + | + | ++ | ++ | responded strongly | moderate response |
| O=C[C@@H](O)[C@H](O)[C@H](O)CO [arabinose] | − |  |  |  |  | no detectable change in the appearance of the motile colony |  |
| N=C(N)NCCC[C@H](N)C(=O)O [arginine] | ++ |  |  |  |  |  |  |
| NC(=O)C[C@H](N)C(=O)O [asparagine] | ++ |  |  |  |  |  |  |
| N[C@@H](CC(=O)O)C(=O)O [aspartic acid] | ++ |  |  |  |  |  |  |
| N[C@@H](CS)C(=O)O [cysteine] | + |  |  |  |  |  |  |
| O=C(CO)[C@@H](O)[C@H](O)[C@H](O)CO [fructose] | − |  |  |  |  | no detectable change in the appearance of the motile colony |  |
| C[C@H](O)[C@@H](O)[C@@H](O)[C@H](O)C=O [fucose] | − |  |  |  |  |  |  |
